Values belong to the compound of their own block, whether it stands above or below them.
Columns and labels:
WEE1 = molecular target: T1, WEE1 (Homo sapiens, UniProt P30291+Q96SW2); assay: Western-blot assay of substrate protein degradation in hPBMCs, WEE1; assay type: cell-based; details: 24 hours of compound treatment, compounds tested at 50 nM and 500 nM (concentration of the table not stated)
T1 construct: endogenous in cells; host or cells: hPBMCs (Milecell Biotechnologies)

CK1α = molecular target: T2, CK1α (Homo sapiens, UniProt P48729+Q96SW2); assay: Western-blot assay of substrate protein degradation in hPBMCs, CK1α; assay type: cell-based; details: 24 hours of compound treatment, compounds tested at 50 nM and 500 nM (concentration of the table not stated)
T2 construct: endogenous in cells; host or cells: hPBMCs (Milecell Biotechnologies)
T2 sequence (P48729 whole entry): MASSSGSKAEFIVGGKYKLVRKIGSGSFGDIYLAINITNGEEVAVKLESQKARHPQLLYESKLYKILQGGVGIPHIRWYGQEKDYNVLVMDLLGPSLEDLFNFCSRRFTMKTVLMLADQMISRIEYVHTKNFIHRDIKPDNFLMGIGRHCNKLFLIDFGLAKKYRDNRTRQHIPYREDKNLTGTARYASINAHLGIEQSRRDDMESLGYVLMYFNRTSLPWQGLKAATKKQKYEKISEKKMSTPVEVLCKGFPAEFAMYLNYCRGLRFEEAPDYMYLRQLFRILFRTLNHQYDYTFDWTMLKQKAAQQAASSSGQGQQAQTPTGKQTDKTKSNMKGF
T2 sequence (Q96SW2 whole entry): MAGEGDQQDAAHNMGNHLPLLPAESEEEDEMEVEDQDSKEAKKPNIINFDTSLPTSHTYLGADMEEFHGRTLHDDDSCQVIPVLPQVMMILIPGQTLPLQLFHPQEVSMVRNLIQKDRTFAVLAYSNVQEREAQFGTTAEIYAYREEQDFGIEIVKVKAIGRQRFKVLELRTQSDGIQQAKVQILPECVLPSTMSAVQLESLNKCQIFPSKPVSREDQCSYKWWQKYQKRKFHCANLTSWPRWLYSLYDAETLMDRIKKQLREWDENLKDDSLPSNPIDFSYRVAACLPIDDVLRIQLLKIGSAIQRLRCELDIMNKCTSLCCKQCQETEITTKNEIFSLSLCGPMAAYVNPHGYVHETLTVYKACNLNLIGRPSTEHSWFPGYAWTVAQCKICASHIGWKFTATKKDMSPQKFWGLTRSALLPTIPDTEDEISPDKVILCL
T2 sequence (Q16531 whole entry partner): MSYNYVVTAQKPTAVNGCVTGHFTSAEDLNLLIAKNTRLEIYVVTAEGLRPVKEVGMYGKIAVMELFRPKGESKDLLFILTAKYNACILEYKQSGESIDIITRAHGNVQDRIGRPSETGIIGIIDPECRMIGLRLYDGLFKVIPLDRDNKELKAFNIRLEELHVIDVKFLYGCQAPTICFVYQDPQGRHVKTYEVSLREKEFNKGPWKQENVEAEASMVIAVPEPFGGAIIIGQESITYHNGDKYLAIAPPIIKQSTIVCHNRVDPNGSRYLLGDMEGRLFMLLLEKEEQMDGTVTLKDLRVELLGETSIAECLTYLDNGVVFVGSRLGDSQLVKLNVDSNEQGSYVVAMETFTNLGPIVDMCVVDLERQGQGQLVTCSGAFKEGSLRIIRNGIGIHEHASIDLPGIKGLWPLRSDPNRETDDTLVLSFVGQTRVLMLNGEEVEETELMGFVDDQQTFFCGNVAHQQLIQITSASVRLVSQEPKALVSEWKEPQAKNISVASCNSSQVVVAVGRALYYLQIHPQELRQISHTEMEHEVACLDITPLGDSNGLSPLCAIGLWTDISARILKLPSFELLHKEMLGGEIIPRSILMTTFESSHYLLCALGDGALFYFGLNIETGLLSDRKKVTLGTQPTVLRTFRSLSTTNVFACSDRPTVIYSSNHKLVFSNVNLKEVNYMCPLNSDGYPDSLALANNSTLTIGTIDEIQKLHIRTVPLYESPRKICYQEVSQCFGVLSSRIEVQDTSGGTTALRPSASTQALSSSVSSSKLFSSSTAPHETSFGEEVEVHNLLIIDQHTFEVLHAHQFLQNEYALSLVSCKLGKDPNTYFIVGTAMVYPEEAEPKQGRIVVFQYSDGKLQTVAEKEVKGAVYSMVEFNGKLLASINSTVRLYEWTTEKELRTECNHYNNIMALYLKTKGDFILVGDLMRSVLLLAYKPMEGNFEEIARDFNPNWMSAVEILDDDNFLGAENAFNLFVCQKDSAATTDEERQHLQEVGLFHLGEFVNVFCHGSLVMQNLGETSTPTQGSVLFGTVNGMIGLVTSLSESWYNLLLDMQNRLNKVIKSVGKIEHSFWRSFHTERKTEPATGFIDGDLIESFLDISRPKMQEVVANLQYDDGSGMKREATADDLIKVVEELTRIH

GSPT1 = molecular target: T3, GSPT1 (Homo sapiens, UniProt P15170+Q96SW2); assay: Western-blot assay of substrate protein degradation in hPBMCs, GSPT1; assay type: cell-based; details: 24 hours of compound treatment, compounds tested at 50 nM and 500 nM (concentration of the table not stated)
T3 construct: endogenous in cells; host or cells: hPBMCs (Milecell Biotechnologies)

IKZF3 = molecular target: T4, IKZF3 (Homo sapiens, UniProt Q96SW2+Q9UKT9); assay: Western-blot assay of substrate protein degradation in hPBMCs, IKZF3; assay type: cell-based; details: 24 hours of compound treatment, compounds tested at 50 nM and 500 nM (concentration of the table not stated)
T4 construct: endogenous in cells; host or cells: hPBMCs (Milecell Biotechnologies)
T4 sequence (Q9UKT9 whole entry): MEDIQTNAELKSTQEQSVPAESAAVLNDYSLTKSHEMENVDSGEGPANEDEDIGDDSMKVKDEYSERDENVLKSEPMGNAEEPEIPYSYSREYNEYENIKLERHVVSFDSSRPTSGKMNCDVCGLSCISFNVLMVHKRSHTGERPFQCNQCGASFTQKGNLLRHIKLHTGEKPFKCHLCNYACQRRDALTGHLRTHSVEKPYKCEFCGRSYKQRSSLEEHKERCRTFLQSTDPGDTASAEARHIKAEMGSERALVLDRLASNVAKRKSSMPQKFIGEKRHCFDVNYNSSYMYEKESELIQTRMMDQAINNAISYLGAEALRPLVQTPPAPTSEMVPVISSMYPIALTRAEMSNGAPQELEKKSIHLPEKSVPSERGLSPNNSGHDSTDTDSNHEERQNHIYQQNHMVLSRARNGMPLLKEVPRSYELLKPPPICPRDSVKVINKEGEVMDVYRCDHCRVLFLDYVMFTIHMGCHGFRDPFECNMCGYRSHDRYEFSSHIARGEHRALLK
T4 sequence (Q96SW2 whole entry): as the sequence (Q96SW2 whole entry) above
T4 sequence (Q16531 whole entry partner): as the sequence (Q16531 whole entry partner) above

IKZF1 = molecular target: T5, IKZF1 (Homo sapiens, UniProt Q13422+Q96SW2); assay: Western-blot assay of substrate protein degradation in hPBMCs, IKZF1; assay type: cell-based; details: 24 hours of compound treatment, compounds tested at 50 nM and 500 nM (concentration of the table not stated)
T5 construct: endogenous in cells; host or cells: hPBMCs (Milecell Biotechnologies)
T5 sequence (Q13422 whole entry): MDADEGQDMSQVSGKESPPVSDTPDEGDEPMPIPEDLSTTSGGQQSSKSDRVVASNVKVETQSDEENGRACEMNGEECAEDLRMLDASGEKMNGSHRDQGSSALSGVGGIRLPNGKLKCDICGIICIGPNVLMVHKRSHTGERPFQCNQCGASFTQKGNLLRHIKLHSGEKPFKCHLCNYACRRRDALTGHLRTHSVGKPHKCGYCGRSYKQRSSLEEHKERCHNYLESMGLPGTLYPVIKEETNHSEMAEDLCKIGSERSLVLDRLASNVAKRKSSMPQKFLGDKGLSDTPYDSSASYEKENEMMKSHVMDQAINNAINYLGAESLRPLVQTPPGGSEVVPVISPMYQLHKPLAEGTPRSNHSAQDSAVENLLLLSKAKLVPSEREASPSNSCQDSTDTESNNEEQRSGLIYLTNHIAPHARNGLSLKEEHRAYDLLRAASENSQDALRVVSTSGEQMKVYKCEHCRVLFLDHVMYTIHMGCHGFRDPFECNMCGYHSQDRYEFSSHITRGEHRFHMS
T5 sequence (Q96SW2 whole entry): as the sequence (Q96SW2 whole entry) above
T5 sequence (Q16531 whole entry partner): as the sequence (Q16531 whole entry partner) above

IKZF2 = molecular target: T6, IKZF2 (Homo sapiens, UniProt Q96SW2+Q9UKS7); assay: Western-blot assay of substrate protein degradation in hPBMCs, IKZF2; assay type: cell-based; details: 24 hours of compound treatment, compounds tested at 50 nM and 500 nM (concentration of the table not stated)
T6 construct: endogenous in cells; host or cells: hPBMCs (Milecell Biotechnologies)
T6 sequence (Q9UKS7 whole entry): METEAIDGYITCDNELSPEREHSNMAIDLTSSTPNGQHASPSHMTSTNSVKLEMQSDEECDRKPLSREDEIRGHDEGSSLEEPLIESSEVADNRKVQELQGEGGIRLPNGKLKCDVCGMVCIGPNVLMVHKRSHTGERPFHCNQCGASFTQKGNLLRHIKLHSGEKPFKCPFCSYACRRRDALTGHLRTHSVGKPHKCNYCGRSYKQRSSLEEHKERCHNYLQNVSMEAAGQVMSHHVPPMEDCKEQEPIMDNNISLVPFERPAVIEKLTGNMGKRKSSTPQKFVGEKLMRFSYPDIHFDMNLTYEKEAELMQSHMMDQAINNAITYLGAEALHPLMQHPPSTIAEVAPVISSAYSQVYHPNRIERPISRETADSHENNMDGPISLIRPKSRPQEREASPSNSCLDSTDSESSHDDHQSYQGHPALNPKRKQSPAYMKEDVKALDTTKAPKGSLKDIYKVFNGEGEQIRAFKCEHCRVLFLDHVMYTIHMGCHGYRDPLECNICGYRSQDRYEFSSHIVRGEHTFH
T6 sequence (Q96SW2 whole entry): as the sequence (Q96SW2 whole entry) above
T6 sequence (Q16531 whole entry partner): as the sequence (Q16531 whole entry partner) above

[1] = molecular target: T7, human Cereblon WT GST-tagged protein (Homo sapiens, UniProt Q96SW2); assay: CRBN-binding affinity by HTRF (CEREBLON BINDING kit); details: HTRF inhibitory activity, CEREBLON BINDING kit; read-out: HTRF IC50
T7 construct: purchased CISBIO 64BDCRBNPEH
T7 sequence (Q96SW2 whole entry): as the sequence (Q96SW2 whole entry) above
Experimental: The CEREBLON BINDING kits (specification: 10,000 tests; product number: Catalog # 64BDCRBNPEH; CISBIO company) was used to determine the CRBN binding ability of the compounds to be tested through a HTRF method (homogeneous time-resolved fluorescence). The specific methods are as follows: • 1. […] Specifically, diluent #9 (1X) solution was used as the diluent, and multiple concentration gradients were set. […] Then, 2.5 µL of human Cereblon WT GST-tagged protein solution was added to each well. Finally, 5 µL of the thoroughly mixed Thalidomide-Re reagent and GST Eu antibody working solution were added to each of the aforementioned wells. […] The blank control wells were sequentially added with 2.5 µL of diluent #9 (1X) solution, 2.5 µL of binding buffer, and 5 µL of thoroughly mixed Thalidomide-Re reagent and GST Eu antibody working solution. • 4.

T1 sequence (P30291 whole entry): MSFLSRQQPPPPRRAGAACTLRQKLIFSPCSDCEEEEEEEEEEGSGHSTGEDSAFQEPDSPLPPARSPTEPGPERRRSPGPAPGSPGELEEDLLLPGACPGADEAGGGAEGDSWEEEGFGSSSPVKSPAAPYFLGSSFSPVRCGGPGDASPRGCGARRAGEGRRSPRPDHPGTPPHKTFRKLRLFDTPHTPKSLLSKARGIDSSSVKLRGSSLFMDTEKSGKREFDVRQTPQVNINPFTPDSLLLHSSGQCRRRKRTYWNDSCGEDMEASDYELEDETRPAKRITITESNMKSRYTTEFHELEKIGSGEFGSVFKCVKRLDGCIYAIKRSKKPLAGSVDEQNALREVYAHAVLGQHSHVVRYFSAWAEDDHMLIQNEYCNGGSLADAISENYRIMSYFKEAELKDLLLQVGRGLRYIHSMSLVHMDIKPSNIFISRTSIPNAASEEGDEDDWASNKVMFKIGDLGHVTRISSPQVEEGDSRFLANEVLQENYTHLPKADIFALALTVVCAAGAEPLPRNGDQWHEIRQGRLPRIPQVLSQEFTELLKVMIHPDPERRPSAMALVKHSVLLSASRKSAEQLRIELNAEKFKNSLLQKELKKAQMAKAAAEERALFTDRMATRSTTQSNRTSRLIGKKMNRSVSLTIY
T1 sequence (Q96SW2 whole entry): as the sequence (Q96SW2 whole entry) above
T1 sequence (Q16531 whole entry partner): as the sequence (Q16531 whole entry partner) above

- IC50 [1]: 500 to 1000 nM
SMILES: Cc1cc(N2CCN(Cc3ccc4c(c3)CN(C3CCC(=O)NC3=O)C4=O)CC2)cc(C)n1 (stereo not shown) [GT-04492, 3-(5-((4-(2,6-dimethylpyridin-4-yl)piperazin-1-yl)methyl)-1-oxoisoindolin-2-yl)piperidine-2,6-dione]
- Weel substrate protein remaining % (WEE1): B (80%< substrate protein remaining %≤ 100%)
- CK1a substrate protein remaining % (CK1α): A (0% ≤ substrate protein remaining % ≤ 80%)
- GSPT1 substrate protein remaining % (GSPT1): A (0% ≤ substrate protein remaining % ≤ 80%)
- IKZF3 substrate protein remaining % (IKZF3): B (80%< substrate protein remaining %≤ 100%)
- IKZF 1 substrate protein remaining % (IKZF1): B (80%< substrate protein remaining %≤ 100%)
- IKZF2 substrate protein remaining % (IKZF2): B (80%< substrate protein remaining %≤ 100%)

- IC50 [1]: 500 to 1000 nM
SMILES: O=C1CCC(N2Cc3cc(CN4CCN(c5c(F)c(F)nc(F)c5F)CC4)ccc3C2=O)C(=O)N1 (stereo not shown) [GT-04499, 3-(1-oxo-5-((4-(perfluoropyridin-4-yl)piperazin-1-yl)methyl)isoindolin-2-yl)piperidine-2,6-dione]
- Weel substrate protein remaining % (WEE1): A (0% ≤ substrate protein remaining % ≤ 80%)
- CK1a substrate protein remaining % (CK1α): A (0% ≤ substrate protein remaining % ≤ 80%)
- GSPT1 substrate protein remaining % (GSPT1): A (0% ≤ substrate protein remaining % ≤ 80%)
- IKZF3 substrate protein remaining % (IKZF3): A (0% ≤ substrate protein remaining % ≤ 80%)
- IKZF 1 substrate protein remaining % (IKZF1): A (0% ≤ substrate protein remaining % ≤ 80%)
- IKZF2 substrate protein remaining % (IKZF2): A (0% ≤ substrate protein remaining % ≤ 80%)

- IC50 [1]: < 500 nM
SMILES: O=C1CCC(N2Cc3cc(CN4CCN(c5ncnc(Cl)c5Cl)CC4)ccc3C2=O)C(=O)N1 (stereo not shown) [GT-04501, 3-(5-((4-(5,6-dichloropyrimidin-4-yl)piperazin-1-yl)methyl)-1-oxoisoindolin-2-yl)piperidine-2,6-dione]
- Weel substrate protein remaining % (WEE1): A (0% ≤ substrate protein remaining % ≤ 80%)
- CK1a substrate protein remaining % (CK1α): A (0% ≤ substrate protein remaining % ≤ 80%)
- GSPT1 substrate protein remaining % (GSPT1): A (0% ≤ substrate protein remaining % ≤ 80%)
- IKZF3 substrate protein remaining % (IKZF3): A (0% ≤ substrate protein remaining % ≤ 80%)
- IKZF 1 substrate protein remaining % (IKZF1): A (0% ≤ substrate protein remaining % ≤ 80%)
- IKZF2 substrate protein remaining % (IKZF2): A (0% ≤ substrate protein remaining % ≤ 80%)

- IC50 [1]: < 500 nM
SMILES: O=C1CCC(N2Cc3cc(CN4CCN(c5ccnc(Cl)c5Cl)CC4)ccc3C2=O)C(=O)N1 (stereo not shown) [GT-04542, 3-(5-((4-(2,3-dichloropyridin-4-yl)piperazin-1-yl)methyl)-1-oxoisoindolin-2-yl)piperidine-2,6-dione]
- Weel substrate protein remaining % (WEE1): A (0% ≤ substrate protein remaining % ≤ 80%)
- CK1a substrate protein remaining % (CK1α): B (80%< substrate protein remaining %≤ 100%)
- GSPT1 substrate protein remaining % (GSPT1): A (0% ≤ substrate protein remaining % ≤ 80%)
- IKZF3 substrate protein remaining % (IKZF3): A (0% ≤ substrate protein remaining % ≤ 80%)
- IKZF 1 substrate protein remaining % (IKZF1): A (0% ≤ substrate protein remaining % ≤ 80%)
- IKZF2 substrate protein remaining % (IKZF2): A (0% ≤ substrate protein remaining % ≤ 80%)

- IC50 [1]: 500 to 1000 nM
SMILES: O=C1CCC(N2Cc3cc(CN4CCN(c5ccnc(F)c5F)CC4)ccc3C2=O)C(=O)N1 (stereo not shown) [GT-04543, 3-(5-((4-(2,3-difluoropyridin-4-yl)piperazin-1-yl)methyl)-1-oxoisoindolin-2-yl)piperidine-2,6-dione]
- Weel substrate protein remaining % (WEE1): A (0% ≤ substrate protein remaining % ≤ 80%)
- CK1a substrate protein remaining % (CK1α): B (80%< substrate protein remaining %≤ 100%)
- GSPT1 substrate protein remaining % (GSPT1): A (0% ≤ substrate protein remaining % ≤ 80%)
- IKZF3 substrate protein remaining % (IKZF3): A (0% ≤ substrate protein remaining % ≤ 80%)
- IKZF 1 substrate protein remaining % (IKZF1): A (0% ≤ substrate protein remaining % ≤ 80%)
- IKZF2 substrate protein remaining % (IKZF2): A (0% ≤ substrate protein remaining % ≤ 80%)

Further lines, the compound ahead of its results:

SMILES: O=C1CCC(N2Cc3cc(CN4CCN(c5cc(Cl)nnc5Cl)CC4)ccc3C2=O)C(=O)N1 (stereo not shown) [GT-04500, 3-(5-((4-(3,6-dichloropyridazin-4-yl)piperazin-1-yl)methyl)-1-oxoisoindolin-2-yl)piperidine-2,6-dione]
- Weel substrate protein remaining % (WEE1): A (0% ≤ substrate protein remaining % ≤ 80%)
- CK1a substrate protein remaining % (CK1α): A (0% ≤ substrate protein remaining % ≤ 80%)
- GSPT1 substrate protein remaining % (GSPT1): A (0% ≤ substrate protein remaining % ≤ 80%)
- IKZF3 substrate protein remaining % (IKZF3): A (0% ≤ substrate protein remaining % ≤ 80%)
- IKZF 1 substrate protein remaining % (IKZF1): A (0% ≤ substrate protein remaining % ≤ 80%)
- IKZF2 substrate protein remaining % (IKZF2): A (0% ≤ substrate protein remaining % ≤ 80%)
- IC50 [1]: 500 to 1000 nM

SMILES: O=C1CCC(N2Cc3cc(CN4CCN(c5cccnc5)CC4)ccc3C2=O)C(=O)N1 (stereo not shown) [GT-04508, 3-(1-oxo-5-((4-(pyridin-3-yl)piperazin-1-yl)methyl)isoindolin-2-yl)piperidine-2,6-dione]
- Weel substrate protein remaining % (WEE1): A (0% ≤ substrate protein remaining % ≤ 80%)
- CK1a substrate protein remaining % (CK1α): B (80%< substrate protein remaining %≤ 100%)
- GSPT1 substrate protein remaining % (GSPT1): A (0% ≤ substrate protein remaining % ≤ 80%)
- IKZF3 substrate protein remaining % (IKZF3): A (0% ≤ substrate protein remaining % ≤ 80%)
- IKZF 1 substrate protein remaining % (IKZF1): A (0% ≤ substrate protein remaining % ≤ 80%)
- IKZF2 substrate protein remaining % (IKZF2): A (0% ≤ substrate protein remaining % ≤ 80%)
- IC50 [1]: 500 to 1000 nM

SMILES: O=C1CCC(N2Cc3c(CN4CCN(c5cccc(Cl)c5Cl)CC4)cccc3C2=O)C(=O)N1 (stereo not shown) [GT-04528, 3-(4-((4-(2,3-dichlorophenyl)piperazin-1-yl)methyl)-1-oxoisoindolin-2-yl)piperidine-2,6-dione]
- Weel substrate protein remaining % (WEE1): A (0% ≤ substrate protein remaining % ≤ 80%)
- CK1a substrate protein remaining % (CK1α): B (80%< substrate protein remaining %≤ 100%)
- GSPT1 substrate protein remaining % (GSPT1): B (80%< substrate protein remaining %≤ 100%)
- IKZF3 substrate protein remaining % (IKZF3): B (80%< substrate protein remaining %≤ 100%)
- IKZF 1 substrate protein remaining % (IKZF1): B (80%< substrate protein remaining %≤ 100%)
- IKZF2 substrate protein remaining % (IKZF2): B (80%< substrate protein remaining %≤ 100%)
- IC50 [1]: 500 to 1000 nM

SMILES: O=C1CCC(N2Cc3cc(CN4CCN(c5ccc(Cl)nc5)CC4)ccc3C2=O)C(=O)N1 (stereo not shown) [GT-04537, 3-(5-((4-(6-chloropyridin-3-yl)piperazin-1-yl)methyl)-1-oxoisoindolin-2-yl)piperidine-2,6-dione]
- Weel substrate protein remaining % (WEE1): A (0% ≤ substrate protein remaining % ≤ 80%)
- CK1a substrate protein remaining % (CK1α): A (0% ≤ substrate protein remaining % ≤ 80%)
- GSPT1 substrate protein remaining % (GSPT1): A (0% ≤ substrate protein remaining % ≤ 80%)
- IKZF3 substrate protein remaining % (IKZF3): A (0% ≤ substrate protein remaining % ≤ 80%)
- IKZF 1 substrate protein remaining % (IKZF1): A (0% ≤ substrate protein remaining % ≤ 80%)
- IKZF2 substrate protein remaining % (IKZF2): A (0% ≤ substrate protein remaining % ≤ 80%)
- IC50 [1]: 500 to 1000 nM

SMILES: Cc1cc(N2CCN(Cc3ccc4c(c3)CN(C3CCC(=O)NC3=O)C4=O)CC2)ccn1 (stereo not shown) [GT-04541, 3-(5-((4-(2-methylpyridin-4-yl)piperazin-1-yl)methyl)-1-oxoisoindolin-2-yl)piperidine-2,6-dione]
- Weel substrate protein remaining % (WEE1): A (0% ≤ substrate protein remaining % ≤ 80%)
- CK1a substrate protein remaining % (CK1α): B (80%< substrate protein remaining %≤ 100%)
- GSPT1 substrate protein remaining % (GSPT1): B (80%< substrate protein remaining %≤ 100%)
- IKZF3 substrate protein remaining % (IKZF3): A (0% ≤ substrate protein remaining % ≤ 80%)
- IKZF 1 substrate protein remaining % (IKZF1): A (0% ≤ substrate protein remaining % ≤ 80%)
- IKZF2 substrate protein remaining % (IKZF2): A (0% ≤ substrate protein remaining % ≤ 80%)
- IC50 [1]: 500 to 1000 nM
